Values quoted from earlier work, collected in article PMC8018465, “Antimicrobial activities of a small molecule compound II-6s against oral streptococci” (Journal of Oral Microbiology, 2021).

Tested on: methicillin-resistant Staphylococcus aureus (MRSA)
Set-up: method as in PMID 30940910
Conditions: cited from earlier work

Question: For `CC(C)(Cc1ccc2ccccc2c1)NC[C@@H](O)COc1cccc(Cl)c1C#N` [NPS-2143, reference compound], which “antimicrobial activity against MRSA” value is on record?
Answer: bacteriostatic activity
